Laboratory results: patent US8338663B2 (priority 2001, dated 2012)

Key:
[1] = tested on: Botrytis cinerea isolated from grape and strawberry; assay: Effects of linalool and nerolidol on Botrytis mycelial growth; assay type: cell-based; details: day 7
Description: Botrytis. Nerolidol and linalool were tested in a range of concentrations (10-5000 ppm) alone and in combination through the addition to Plich medium in 6 well plates (3 ml per well). In the case of comparing the application of nerolidol and linalool alone to the combination of the two compounds, 100 ppm of the single compound was for example compared to 50+50 ppm of the two compounds together. One 6 well plate per compound was used with two different concentrations in triplicate. All wells were inoculated with a mycelium plug of Botrytis cinerea isolated from grape and strawberry and incubated at 20° C. Each day the radial growth of the mycelium was measured. The mycelium growth of all Botrytis isolates was inhibited at concentrations above 10 ppm.

[2] = tested on: Fusarium graminearum, Fusarium culmorum, F. verticillioides strain MRC826; assay type: cell-based, Fusarium spp.
Phytophthora infestans [3] = assay type: in vivo; details: cultivar Bintje, 0.05% (v/v) solution vacuum-infiltrated (ca. 0.0125% in leaves), 4 isolates, after 7 days
[4] = tested on: Agrobacterium tumefaciens; assay: Transformation of Agrobacterium with H64NORS binary vector (nerolidol formed from endogenous FPP); assay type: cell-based; details: inferred: no colonies obtained after transformation of 2 strains with H64NORS
Phytophthora infestans [5] = assay type: cell-based; details: for effect on mycelium growth at the lowest concentration: 0.002% (=20 ppm) in Plich medium, isolate VK98014, day 3 and 5; for effect on mycelium growth through the vapour phase: 0.2% added to the medium in the adjacent wells, isolate VK98014; for inhibition of mycelium growth: 2% and 0.2% (v/v) in Plich medium, isolate VK98014, day 3, 5 and 7
[6] = tested on: Fusarium verticillioides spores; assay: Spectrophotometric assay of Fusarium spore germination; assay type: cell-based; details: 10^5 spores/ml in Czapek Dox medium, day 3
Description: A spectrophotometric assay was used to monitor the onset of germination of Fusarium verticillioides spores (isolates: ITEM2282, MRC3235, MRC826, MRC826-2) in solution. The spores were diluted to a concentration of 10^5 spores/ml in Czapek Dox medium and mixed with 8-4000 ppm of linalool or nerolidol.

[7] = tested on: Phytophthora infestans (isolate VK98014); assay type: cell-based
[8] = tested on: Phytophthora infestans (isolate VK98014); assay type: cell-based; details: linalool versus farnesol
[9] = target: T1, H64NORS linalool/nerolidol synthase, cultivated strawberry, recombinant his-tag purified, no targeting signal, SEQ ID NO: 19 (Fragaria x ananassa, UniProt P0CV94); assay: Kinetic characterisation of the his-tag purified H64NORS-encoded protein; assay type: biochemical, cultivated strawberry (Fragaria×ananassa Duch. cv. Elsanta); details: read-out: Km for GPP
T1 sequence (P0CV94 1-519): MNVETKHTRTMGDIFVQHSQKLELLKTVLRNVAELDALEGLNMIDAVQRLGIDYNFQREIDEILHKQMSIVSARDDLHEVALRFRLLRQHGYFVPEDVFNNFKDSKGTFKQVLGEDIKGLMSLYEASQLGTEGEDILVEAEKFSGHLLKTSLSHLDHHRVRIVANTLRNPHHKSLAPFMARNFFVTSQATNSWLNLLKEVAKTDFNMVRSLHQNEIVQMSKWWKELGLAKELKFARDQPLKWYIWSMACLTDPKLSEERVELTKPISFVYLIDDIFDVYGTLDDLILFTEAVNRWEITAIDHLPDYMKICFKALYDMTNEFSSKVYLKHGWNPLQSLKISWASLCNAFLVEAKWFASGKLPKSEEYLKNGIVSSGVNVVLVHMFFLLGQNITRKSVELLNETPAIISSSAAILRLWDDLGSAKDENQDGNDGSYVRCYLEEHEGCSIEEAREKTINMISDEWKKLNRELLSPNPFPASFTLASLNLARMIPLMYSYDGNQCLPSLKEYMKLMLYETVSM
Description: The pRSETB vector harboring the H64MUT or H64NORS was used to transform E. coli strain BL21 Gold DE3 pLysE (Stratagene) as described by the manufacturer. For bacterial expression typically 1 ml of overnight liquid culture grown at 37° C. in Luria Broth (LB) medium (10 g/l tryptone, 5 g/l yeast extract, 5 g/l NaCl) supplemented with 100 mg/l ampicillin was diluted 50 times in the same medium and grown until the OD600 reached 0.4 (at 37° C.). At this stage IPTG was added to a final concentration of 1 mM in order to induce expression. After overnight growth at 16° C. the cells were harvested by centrifugation at 4000×g for 15 min. […] The cells were further processed as described by the Ni-NTA Spin Columns manufacturers (QIAGEN) for protein purification under native conditions. First elute from the column (200 μl) was further used for enzymatic activity assays.
For determination of terpene synthase identity, the His-tag purified enzymes (prepared as described above under Example 4.6) were diluted 10-fold with buffer A containing 15 mM MOPSO (pH 7.0), 10% glycerol, 10 mM MgCl2, 1 mM sodium ascorbate and 2 mM DTT. […]
The samples were also analysed by GC-MS using a HP 5890 series II gas chromatograph equipped with an HP5-MS column (30 m×0.25 mm i.d., 0.25 μm df) and HP 5972A Mass Selective Detector (Hewlett-Packard). […]

[10] = substrate: CC(C)=CCC/C(C)=C/CC/C(C)=C/CO[P@@](=O)(O)OP(=O)(O)O; assay: purified protein, by the assay type; details: pH 7.0

Molecule: C=CC(C)(O)CCC=C(C)CCC=C(C)C (stereo not shown) [nerolidol]
- Relative effectiveness at low concentrations ([1]; nerolidol versus linalool): more effective than linalool
- Relative effectiveness at low concentrations ([2]; F. graminearum and MRC826, day 7): slightly more effective than linalool
- effect on mycelium growth, lesion formation and sporulation in infiltrated potato leaves (Phytophthora infestans [3]): strongly inhibits mycelium growth, lesion formation and sporulation
- toxicity to Agrobacterium cells [4]: highly toxic
- effect on mycelium growth at the lowest concentration (Phytophthora infestans [5]): strong inhibitor of mycelium growth
- effect on mycelium growth through the vapour phase (Phytophthora infestans [5]): negligible
- concentrations showing strong inhibition of germination ([6]; 8-4000 ppm tested): above 250 ppm
- Relative effectiveness, inhibition of mycelium growth ([7]; nerolidol versus linalool): slightly more effective than linalool

Molecule: CC(C)=CCCC(C)=CCCC(C)=CCO [Farnesol, reference compound]
- inhibition of mycelium growth (Phytophthora infestans [5]): partial inhibition

Molecule: C=CC(C)(O)CCC=C(C)C (stereo not shown) [linalool]
- Relative effectiveness at very high concentrations ([1]; linalool or the combination): most effective
- Relative activity, inhibition of mycelium growth [8]: more active than farnesol
- Relative effectiveness at very high concentrations ([2]; nerolidol versus linalool, day 7): more effective
- effect on mycelium growth at the lowest concentration (Phytophthora infestans [5]): active
- effect on mycelium growth through the vapour phase (Phytophthora infestans [5]): equally effective through the vapour phase as through the medium
- inhibition of mycelium growth (Phytophthora infestans [5]): inhibited completely
- effect on germination of spores ([6]; 8-4000 ppm): did not affect the germination of the spores at all
- Inhibition of mycelium growth at the lowest concentration ([7]; 0.002% (=20 ppm) in Plich medium, day 3 and 5): active even at the lowest concentration

Molecule: CC(C)=CCC/C(C)=C/COP(=O)(O)OP(=O)(O)O [GPP, geranyl diphosphate]
- Km [9]: > 50 µM

B1: H64NORS linalool/nerolidol synthase, cultivated strawberry, recombinant his-tag purified, no targeting signal, SEQ ID NO: 19 (Fragaria x ananassa) (protein)
chain: T1 sequence (P0CV94 1-519)
- Km [10]: 3.2 µM
